Consider 26 compounds from PubChem BioAssay (NCI).

Assay in all cases: NCI tumour cell line growth inhibition, 48 h
Experiment [1] relates to SW-620 colon.
Experiment [2] concerns SR leukemia.
The test system of experiment [3] is ACHN renal.
For experiment [4], the system named is LOX IMVI melanoma.
Experiment [5] has as its system 786-0 renal.
The test system of experiment [6] is RXF 393 renal.
The test system of experiment [7] is HCC-2998 colon.
In experiment [8] the test system is UACC-62 melanoma.
The subject of experiment [9] is SK-MEL-5 melanoma.
For experiment [10], the system named is SK-MEL-2 melanoma.

The structures appear in SMILES notation.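 48-hour exposure; five concentrations; linearly interpolated endpoints. Here, GI50 denotes the concentration required for 50% inhibition of growth. TGI denotes the concentration required for complete inhibition of growth.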

For the compound `C[C@H](OCc1ccccc1)C(=O)N1CCS(=O)(=O)N2CCC[C@@H]2C1=O`, the TGI in [1], in experiment [2], in experiment [3], in experiment [4], in [5] and in experiment [6] was more than 100 µM each time. The TGI in [7], in experiment [8] and in [9] was more than 100 µM each time.

With `O=C1NNC2(C(=O)N1)c1ccccc1-c1ccccc12`, the TGI in experiment [1], in experiment [2], in experiment [3], in [4], in experiment [5] and in experiment [6] was more than 10 µM throughout. Besides, the TGI in experiment [7], in experiment [8] and in experiment [9] was more than 10 µM throughout.

Consider `Cc1ccc2c(c1)-c1c3c(nn1-c1ccccc1)-c1ccccc1SC3O2` (stereo unspecified), for which the TGI in [1], in experiment [3], in [10], in experiment [4], in experiment [5] and in [6] was more than 100 µM each time. The TGI in experiment [7] was more than 100 µM.

For the compound `CCOC(=O)CCC(NC(=O)OCc1ccccc1)C(=O)NC(CCC(=O)OCC)C(=O)NC(CCC(=O)OCC)C(=O)NC(CCC(=O)OCC)C(=O)NC(CCC(=O)OCC)C(=O)NC(CCC(=O)OCC)C(=O)NC(CCC(=O)OCC)C(=O)OCC` (stereo unspecified), the TGI in experiment [1], in experiment [2], in experiment [3], in experiment [10], in experiment [4] and in experiment [5] was more than 100 µM throughout. In addition, the TGI was 53.8 µM in [7], more than 100 µM in [8] and more than 100 µM in experiment [9].

Take `C/C(=N/NC(=S)N1CCCCC1)c1ccccc1O`: the TGI in experiment [1], in experiment [3], in [10], in experiment [4], in experiment [5] and in experiment [6] was more than 31.6 µM each time. Besides, the TGI in [7] was more than 31.6 µM; in experiment [8], more than 31.6 µM; in [9] it was more than 100 µM.

For the compound `OC(CCNC12CC3CC(CC(C3)C1)C2)c1ccccc1` (stereo unspecified), the TGI in [1], in [3], in experiment [10], in [5], in experiment [6] and in [7] was more than 100 µM each time. Moreover, the TGI in [8] and in [9] was more than 100 µM throughout.

Regarding `COc1ccc(/C=C/c2cc(OC)c(OC)c(OC)c2)cc1`, the TGI was more than 100 µM in [1]; more than 100 µM in experiment [3]; 52.8 µM in experiment [10]; more than 100 µM in [4]; more than 100 µM in [5]; 2.62 µM in [6]. Moreover, the TGI is 15.7 µM in [7], more than 100 µM in [8] and more than 85.4 µM in experiment [9].

With `Cc1cc(NCCCN(C)C)c2ccc3c(ccc4c(NCCCN(C)C)cc(C)nc43)c2n1`, the GI50 was 0.185 µM in experiment [1]; 0.354 µM in experiment [2]; 0.238 µM in experiment [3]; 0.228 µM in experiment [10]; 0.176 µM in experiment [4]; 0.202 µM in experiment [5]. The GI50 in experiment [7] was 0.134 µM; in experiment [8], 0.283 µM; in experiment [9] it was 0.275 µM. In addition, the TGI in experiment [1] is 0.493 µM; in experiment [2], more than 100 µM; in [3], 0.744 µM; in experiment [10], 0.55 µM; in experiment [4], 0.401 µM; in experiment [5] it was 0.506 µM. Also, the figures for the TGI in experiment [7], in [8] and in experiment [9] were 0.323 µM, 0.93 µM and 0.945 µM, respectively.

For `Cc1ccc(S(=O)(=O)c2c(COC(=O)c3cccc(C)c3)c(-c3ccccc3)nn2C)cc1`, the GI50 in experiment [1], in experiment [2], in experiment [3], in experiment [4], in experiment [5] and in [6] was more than 100 µM each time. Also, the GI50 in experiment [7] was more than 100 µM; in experiment [8] it was 8.41 µM; in experiment [9], more than 100 µM. In addition, the TGI in experiment [1], in experiment [2], in experiment [3], in experiment [4], in [5] and in [6] was more than 100 µM each time. For the same compound, the TGI in experiment [7], in experiment [8] and in experiment [9] was more than 100 µM each time.

For `CC(CN(C)C)/C(=N\Nc1ccccc1)c1ccccc1` (stereo unspecified), the TGI is more than 100 µM in experiment [1]; 23.1 µM in [2]; 2.08 µM in experiment [3]; 4.16 µM in [4]; 29.5 µM in experiment [5]; 65.4 µM in [6]. For the same compound, the TGI in experiment [8] was 12.3 µM; in experiment [9] it was 17.5 µM.

For the compound `CC1(C)CC(O)C(C)(C)[C@@H](O)C1` (stereo partly specified), the TGI in experiment [1], in experiment [3], in [10], in experiment [4], in experiment [5] and in experiment [6] was more than 100 µM in each case. Besides, the TGI in experiment [7], in experiment [8] and in experiment [9] was more than 100 µM each time.

For `CCOC(C[C@H](O[Si](C)(C)C(C)(C)C)[C@H]1COC(=S)S1)OCC`, the TGI in [1], in experiment [2], in [3], in experiment [4], in [5] and in experiment [7] was more than 100 µM each time. This compound had a TGI in experiment [9] of more than 100 µM.

With `COC(=O)C1(Cc2ccc3c(c2)CCC3)Cc2ccccc2C1O` (stereo unspecified), the TGI in [1] was determined as 43.5 µM; in experiment [2], 75.9 µM; in [3], 38.3 µM; in experiment [10], 27.4 µM; in experiment [4], 34 µM; in [5], 32.4 µM. Also, the TGI in [7] amounted to 31.9 µM; in [8], 28.1 µM; in [9], 29.8 µM.

Consider `CSc1nnc(CCC(=O)Nc2c(C)cccc2C)o1`, for which the TGI in [1], in [10], in experiment [4], in experiment [5], in experiment [6] and in experiment [7] was more than 100 µM throughout. Also, the TGI in experiment [8] and in experiment [9] was more than 100 µM in each case.

As to `COc1cc2c(cc1OC)[C@H](C)N1CCc3cc(OC)c(OC)cc3[C@@H]1C2`, the TGI in experiment [1], in experiment [3], in experiment [10], in experiment [4], in experiment [5] and in experiment [7] was more than 100 µM each time. Further, the TGI in [8] and in experiment [9] was more than 100 µM in each case.

Consider `Cc1cc2c(cc1Cl)SC1=NN(C)C(C)N1S2(=O)=O` (stereo unspecified), for which the GI50 in experiment [1] is more than 100 µM; in experiment [2] it was 39.2 µM; in [3] it was more than 100 µM; in experiment [10], more than 100 µM; in [4], more than 100 µM; in experiment [5] it was more than 100 µM. Also, the GI50 in experiment [7], in experiment [8] and in experiment [9] was more than 100 µM in each case. In addition, the TGI in experiment [1], in experiment [2], in [3], in experiment [10], in experiment [4] and in experiment [5] was more than 100 µM throughout. Also, the TGI in [7], in [8] and in [9] was more than 100 µM in each case.

With `CCCCCCCCCCCCCCCC(=O)OCC1OC(n2cc(F)c(=O)[nH]c2=O)C(N)C(O)C1O` (stereo unspecified), the TGI amounted to 30.4 µM in [1]; 33.9 µM in [3]; 33.1 µM in [4]; 35.2 µM in experiment [5]; 27.8 µM in [7]; 30 µM in [8]. Further, in [9], the TGI was found to be 33.1 µM.

For the compound `O=C1NC(Nc2ccccc2)=NC(C(F)(F)F)(C(F)(F)F)N1`, the TGI was more than 100 µM in experiment [1]; more than 100 µM in experiment [2]; more than 100 µM in [3]; 75.4 µM in experiment [10]; more than 100 µM in experiment [4]; more than 100 µM in [5]. The TGI is more than 100 µM in experiment [7], more than 100 µM in experiment [8] and 79.6 µM in experiment [9].

For the compound `O=C1CCCCCCCCCCC1CN1CCCC1` (stereo unspecified), the TGI in experiment [1] is more than 100 µM; in experiment [3] it was more than 100 µM; in experiment [10], 99.7 µM; in experiment [4], 70.7 µM; in experiment [5], 44.7 µM; in experiment [6], 65.4 µM. The TGI is 70.6 µM in experiment [7], 36.7 µM in experiment [8] and 31.6 µM in experiment [9].

In the case of `C=CCN=C(N/N=C/c1ccc([N+](=O)[O-])o1)NS(=O)(=O)c1cc(C(=O)Nc2ccc(Cl)cc2)c(Cl)cc1SC`, the GI50 in experiment [1] is 1.02 µM; in experiment [2], 1.28 µM; in experiment [3], 3.55 µM; in experiment [4], more than 64.1 µM; in experiment [5] it was 6.94 µM; in experiment [7], 2.29 µM. For the same compound, the GI50 in experiment [8] is 2.81 µM; in [9], 2.14 µM. Further, the TGI in [1] was more than 100 µM; in experiment [2], more than 23.6 µM; in experiment [3], more than 50.1 µM; in experiment [10], more than 24.4 µM; in experiment [4], more than 100 µM; in experiment [5], more than 100 µM. Also, the TGI in [7] was 5.96 µM; in experiment [8], more than 27.7 µM; in experiment [9] it was 4.82 µM.

Turning to `CC1=NN(C(=O)c2ccccc2O)C(=O)/C1=C/c1ccc(O)cc1`, the TGI was more than 100 µM in experiment [1]; more than 100 µM in experiment [2]; more than 100 µM in experiment [3]; more than 82.1 µM in experiment [4]; more than 100 µM in experiment [5]; more than 100 µM in experiment [7]. In addition, the TGI in experiment [8] was 5.06 µM; in experiment [9], more than 100 µM.

Take `COc1cc(OC)c(C/C=C/c2ccccc2)cc1O`: the TGI is 38 µM in [1]; 72.3 µM in experiment [3]; 41.8 µM in [10]; 29.4 µM in experiment [4]; 32.2 µM in [5]; 29.8 µM in experiment [7]. The TGI in [8] was 29 µM; in [9], 29.3 µM.

Turning to `c1cncc(C2N3CCCCC3[C@@H]3c4[nH]c5ccccc5c4CCN23)c1` (stereo partly specified), the TGI in [1], in experiment [3], in [10], in [5], in experiment [6] and in experiment [8] was more than 100 µM in each case. Besides, the TGI in experiment [9] was more than 100 µM.

Turning to `OC1(C23CC4CC(CC(C4)C2)C3)CSCC1(O)C12CC3CC(CC(C3)C1)C2` (stereo unspecified), the TGI in experiment [1], in experiment [2], in experiment [10], in experiment [5], in experiment [7] and in experiment [8] was more than 100 µM throughout. In addition, the TGI in experiment [9] is more than 100 µM.

For the compound `CCCCCCC[CH2][Sn]([CH2]CCCCCCC)([O]c1cccc2cccnc12)[O]c1cccc2cccnc12`, the GI50 in experiment [1] is 0.391 µM; in experiment [3], 2.98 µM; in experiment [10] it was 1.61 µM; in experiment [4], 1.77 µM; in [5], 1.49 µM; in experiment [6], 2.06 µM. Besides, the GI50 in experiment [7] is 1.99 µM; in [8] it was 1.82 µM; in [9], 1.65 µM. For the same compound, the TGI is 1.89 µM in experiment [1]; 11.1 µM in [3]; 3.14 µM in [10]; 3.64 µM in [4]; 2.84 µM in experiment [5]; 8.07 µM in experiment [6]. The values for the TGI in [7], in experiment [8] and in [9] were 3.43 µM, 3.9 µM and 3.21 µM, respectively.

Regarding `CC(=O)N1CC(C)(C)c2c(C)c(O)c(C)c(C)c21`, the TGI in experiment [1], in [3], in [4], in experiment [5], in experiment [6] and in experiment [7] was more than 100 µM in each case. Moreover, the TGI in experiment [8] and in experiment [9] was more than 100 µM throughout.
